{
  "source": "ChEMBL document CHEMBL3616410",
  "about": "“Linked pyridinyl-thiadiazoles: Design and synthesis as potential candidate for treatment of XDR and MDR tuberculosis” (Eur J Med Chem, 2015)",
  "type_in_all_cases": "functional",
  "key": {"[1]": {"test_system": "Mycobacterium tuberculosis", "assay": "Antimycobacterial activity against multi-drug resistant Mycobacterium tuberculosis TN1811 after 5 days by spectrophotometry", "conditions": "TN1811, 120 h"}, "[2]": {"test_system": "Mycobacterium tuberculosis", "assay": "Antimycobacterial activity against multi-drug resistant Mycobacterium tuberculosis TN2557 after 5 days by spectrophotometry", "conditions": "TN2557, 120 h"}, "[3]": {"test_system": "Mycobacterium tuberculosis", "assay": "Antimycobacterial activity against multi-drug resistant Mycobacterium tuberculosis TN565 after 5 days by spectrophotometry", "conditions": "TN565, 120 h"}, "[4]": {"test_system": "Mycobacterium tuberculosis", "assay": "Antimycobacterial activity against multi-drug resistant Mycobacterium tuberculosis TN576 after 5 days by spectrophotometry", "conditions": "TN576, 120 h"}, "[5]": {"test_system": "Mycobacterium tuberculosis", "assay": "Antimycobacterial activity against multi-drug resistant Mycobacterium tuberculosis TN702 after 5 days by spectrophotometry", "conditions": "TN702, 120 h"}, "[6]": {"test_system": "Mycobacterium tuberculosis", "assay": "Antimycobacterial activity against multi-drug resistant Mycobacterium tuberculosis TN715 after 5 days by spectrophotometry", "conditions": "TN715, 120 h"}, "[7]": {"test_system": "Mycobacterium tuberculosis", "assay": "Antimycobacterial activity against multi-drug resistant Mycobacterium tuberculosis TN768 after 5 days by spectrophotometry", "conditions": "TN768, 120 h"}, "[8]": {"test_system": "Mycobacterium tuberculosis", "assay": "Antimycobacterial activity against multi-drug resistant Mycobacterium tuberculosis TN772 after 5 days by spectrophotometry", "conditions": "TN772, 120 h"}, "[9]": {"test_system": "Mycobacterium tuberculosis", "assay": "Antimycobacterial activity against multi-drug resistant Mycobacterium tuberculosis TN1195 after 5 days by spectrophotometry", "conditions": "TN1195, 120 h"}, "[10]": {"test_system": "Mycobacterium tuberculosis", "assay": "Antimycobacterial activity against multi-drug resistant Mycobacterium tuberculosis TN1314 after 5 days by spectrophotometry", "conditions": "TN1314, 120 h"}, "[11]": {"test_system": "Mycobacterium tuberculosis", "assay": "Antimycobacterial activity against multi-drug resistant Mycobacterium tuberculosis TN1618 after 5 days by spectrophotometry", "conditions": "TN1618, 120 h"}},
  "data": [
    {"compound": "O=C(CCSc1nnc(-c2ccncc2)s1)Nc1ccc(Cl)cc1", "values": [
      {"measurement": "MIC", "setting": "[1]", "value": 0.03, "unit": "µg/mL"},
      {"measurement": "MIC", "setting": "[2]", "value": 0.13, "unit": "µg/mL"},
      {"measurement": "MIC", "setting": "[3]", "value": 0.06, "unit": "µg/mL"},
      {"measurement": "MIC", "setting": "[4]", "value": 0.06, "unit": "µg/mL"},
      {"measurement": "MIC", "setting": "[5]", "value": 0.25, "unit": "µg/mL"},
      {"measurement": "MIC", "setting": "[6]", "value": 0.06, "unit": "µg/mL"},
      {"measurement": "MIC", "setting": "[7]", "value": 0.06, "unit": "µg/mL"},
      {"measurement": "MIC", "setting": "[8]", "value": 0.03, "unit": "µg/mL"},
      {"measurement": "MIC", "setting": "[9]", "value": 0.25, "unit": "µg/mL"},
      {"measurement": "MIC", "setting": "[10]", "value": 0.03, "unit": "µg/mL"},
      {"measurement": "MIC", "setting": "[11]", "value": 0.06, "unit": "µg/mL"}
    ]}
  ]
}
